What was measured:
[1] = system: MFE-296; experiment: Induction of apoptosis in human MFE296 cells assessed as viable cells at 300 nM by 7-AAD/Annexin staining-based assay (reference value: 90.9 to 94.4%); format: functional; conditions: read-out: Activity
[2] = system: PC-3; experiment: Induction of apoptosis in human p53-null PC3 cells assessed as late apoptotic cells at 300 nM by 7-AAD/Annexin staining-based assay (reference value: 0.4 to 1.6%); format: functional
[3] = system: MFE-280; experiment: Induction of apoptosis in human MFE280 cells assessed as viable cells at 100 nM by 7-AAD/Annexin staining-based assay (reference value: 84.9 to 87.7%); format: functional; conditions: read-out: Activity
[4] = system: MFE-296; experiment: Induction of apoptosis in human MFE296 cells assessed as early apoptotic cells at 1000 nM by 7-AAD/Annexin staining-based assay (reference value: 1.5 to 2.1%); format: functional
[5] = system: T47D; experiment: Induction of apoptosis in human T47D cells assessed as viable cells at 100 nM by 7-AAD/Annexin staining-based assay (reference value: 74.5 to 94.5%); format: functional; conditions: read-out: Activity
[6] = system: MFE-296; experiment: Induction of apoptosis in human MFE296 cells assessed as nuclear debris at 100 nM by 7-AAD/Annexin staining-based assay (reference value: 0.4 to 0.8%); format: functional
[7] = system: PC-3; experiment: Induction of apoptosis in human p53-null PC3 cells assessed as early apoptotic cells at 1000 nM by 7-AAD/Annexin staining-based assay (reference value: 0.6 to 1.4%); format: functional
[8] = system: MCF7; experiment: Induction of apoptosis in human MCF7 cells assessed as viable cells at 300 nM by 7-AAD/Annexin staining-based assay (reference value: 92.6 to 96.8%); format: functional; conditions: read-out: Activity
[9] = system: PC-3; experiment: Induction of apoptosis in human p53-null PC3 cells assessed as late apoptotic cells at 1000 nM by 7-AAD/Annexin staining-based assay (reference value: 0.4 to 1.6%); format: functional
[10] = system: MCF7; experiment: Induction of apoptosis in human MCF7 cells assessed as early apoptotic cells at 100 nM by 7-AAD/Annexin staining-based assay (reference value: 2 to 2.7%); format: functional
[11] = system: MCF7; experiment: Induction of apoptosis in human MCF7 cells assessed as early apoptotic cells at 300 nM by 7-AAD/Annexin staining-based assay (reference value: 2 to 2.7%); format: functional
[12] = system: MCF7; experiment: Induction of apoptosis in human MCF7 cells assessed as nuclear debris at 100 nM by 7-AAD/Annexin staining-based assay (reference value: 0.2 to 3%); format: functional
[13] = system: T47D; experiment: Induction of apoptosis in human T47D cells assessed as early apoptotic cells at 100 nM by 7-AAD/Annexin staining-based assay (reference value: 1.6 to 4.3%); format: functional
[14] = system: PC-3; experiment: Induction of apoptosis in human p53-null PC3 cells assessed as viable cells at 100 nM by 7-AAD/Annexin staining-based assay (reference value: 96.5 to 98.6%); format: functional; conditions: read-out: Activity
[15] = system: T47D; experiment: Induction of apoptosis in human T47D cells assessed as nuclear debris at 1000 nM by 7-AAD/Annexin staining-based assay (reference value: 0.2 to 7.7%); format: functional
[16] = system: A2780; experiment: Induction of apoptosis in human A2780 cells assessed as nuclear debris at 1000 nM by 7-AAD/Annexin staining-based assay (reference value: 0.3 to 1.1%); format: functional
[17] = system: T47D; experiment: Induction of apoptosis in human T47D cells assessed as early apoptotic cells at 300 nM by 7-AAD/Annexin staining-based assay (reference value: 1.6 to 4.3%); format: functional
[18] = system: A2780; experiment: Induction of apoptosis in human A2780 cells assessed as late apoptotic cells at 300 nM by 7-AAD/Annexin staining-based assay (reference value: 1.2 to 2.2%); format: functional
[19] = system: T47D; experiment: Induction of apoptosis in human T47D cells assessed as viable cells at 300 nM by 7-AAD/Annexin staining-based assay (reference value: 74.5 to 94.5%); format: functional; conditions: read-out: Activity
[20] = system: MFE-296; experiment: Induction of apoptosis in human MFE296 cells assessed as late apoptotic cells at 1000 nM by 7-AAD/Annexin staining-based assay (reference value: 3.6 to 6.6%); format: functional
[21] = system: MFE-296; experiment: Induction of apoptosis in human MFE296 cells assessed as late apoptotic cells at 300 nM by 7-AAD/Annexin staining-based assay (reference value: 3.6 to 6.6%); format: functional
[22] = system: A2780; experiment: Induction of apoptosis in human A2780 cells assessed as viable cells at 300 nM by 7-AAD/Annexin staining-based assay (reference value: 95 to 96.7%); format: functional; conditions: read-out: Activity
[23] = system: MFE-280; experiment: Induction of apoptosis in human MFE280 cells assessed as nuclear debris at 300 nM by 7-AAD/Annexin staining-based assay (reference value: 0.5 to 2.3%); format: functional
[24] = system: A2780; experiment: Induction of apoptosis in human A2780 cells assessed as viable cells at 1000 nM by 7-AAD/Annexin staining-based assay (reference value: 95 to 96.7%); format: functional; conditions: read-out: Activity
[25] = system: A2780; experiment: Induction of apoptosis in human A2780 cells assessed as late apoptotic cells at 1000 nM by 7-AAD/Annexin staining-based assay (reference value: 1.2 to 2.2%); format: functional
[26] = system: A2780; experiment: Induction of apoptosis in human A2780 cells assessed as late apoptotic cells at 100 nM by 7-AAD/Annexin staining-based assay (reference value: 1.2 to 2.2%); format: functional
[27] = system: MFE-280; experiment: Induction of apoptosis in human MFE280 cells assessed as viable cells at 1000 nM by 7-AAD/Annexin staining-based assay (reference value: 84.9 to 87.7%); format: functional; conditions: read-out: Activity
[28] = system: PC-3; experiment: Induction of apoptosis in human p53-null PC3 cells assessed as viable cells at 300 nM by 7-AAD/Annexin staining-based assay (reference value: 96.5 to 98.6%); format: functional; conditions: read-out: Activity
[29] = system: A2780; experiment: Induction of apoptosis in human A2780 cells assessed as nuclear debris at 100 nM by 7-AAD/Annexin staining-based assay (reference value: 0.3 to 1.1%); format: functional
[30] = system: MCF7; experiment: Cell cycle arrest in human MCF7 cells assessed as accumulation at S phase at 100 nM (reference value: 25.36 to 26.82%); format: functional
[31] = Inhibition of bovine brain tubulin polymerization; design: species or system Bos taurus
[32] = system: T47D; experiment: Cell cycle arrest in human T47D cells assessed as accumulation at G1 phase at 100 nM (reference value: 45.5 to 57.8%); format: functional
[33] = system: MFE-280; experiment: Cell cycle arrest in human MFE280 cells assessed as accumulation at G1 phase at 1000 nM (reference value: 64.99 to 67.86%); format: functional
[34] = system: MFE-280; experiment: Cell cycle arrest in human MFE280 cells assessed as accumulation at G2/M phase at 1000 nM (reference value: 16.43 to 17.9%); format: functional
[35] = system: PC-3; experiment: Cell cycle arrest in human p53-null PC3 cells assessed as accumulation at S phase at 100 nM (reference value: 29.08 to 29.33%); format: functional
[36] = system: MFE-280; experiment: Induction of apoptosis in human MFE280 cells assessed as late apoptotic cells at 100 nM by 7-AAD/Annexin staining-based assay (reference value: 6 to 7.4%); format: functional

| SMILES | viability at 0.3 µM [1] [%] | Activity [2] [%] | viability at 0.1 µM [3] [%] | Activity [4] [%] | viability at 0.1 µM [5] [%] | Activity [6] [%] | Activity [7] [%] | viability at 0.3 µM [8] [%] | Activity [9] [%] | Activity [10] [%] | Activity [11] [%] | Activity [12] [%] | Activity [13] [%] | viability at 0.1 µM [14] [%] | Activity [15] [%] | Activity [16] [%] | Activity [17] [%] | Activity [18] [%] | viability at 0.3 µM [19] [%] | Activity [20] [%] | also measured |
| --- | --- | --- | --- | --- | --- | --- | --- | --- | --- | --- | --- | --- | --- | --- | --- | --- | --- | --- | --- | --- | --- |
| CN[C@@H]1C[C@H]2O[C@@](C)([C@@H]1OC)n1c3ccccc3c3c4c(c5c6ccccc6n2c5c31)C(=O)NC4 [STAUROSPORINE] | 57.2 | 0.2 | 51.1 | 4.4 | 95 | 2.4 | 1.3 | 83.6 | 1.2 | 3.4 | 7.4 | 0.6 | 2.5 | 98 | 0.6 | 4.3 | 5.5 | 8.5 | 90.6 | 60.3 | Activity [21]: 24.4%; viability at 0.3 µM [22]: 87.1%; Activity [23]: 0.9%; viability at 1 µM [24]: 57.8%; Activity [25]: 32.8%; Activity [26]: 3.7%; viability at 1 µM [27]: 47.5%; viability at 0.3 µM [28]: 98.6%; Activity [29]: 0.4% |
| O=C(Nc1ccc(-c2cccc(Cl)c2)cn1)c1cncnc1 | 86.5 | 0.8 | 86.2 | 3.7 | 92.4 | 1.3 | 1.3 | 92.4 | 1.2 | 3.3 | 4.1 | 0.4 | 5.1 | 98.9 | 0.6 | 1.4 | 9.5 | 3.5 | 86.5 | 9.1 | Activity [30]: 19.1%; IC50 [31]: 1.45 µM; Activity [32]: 54.23%; Activity [33]: 34.18%; Activity [34]: 46.61%; Activity [35]: 22.12%; Activity [21]: 8.2%; viability at 0.3 µM [22]: 92.1%; Activity [36]: 8.3%; Activity [23]: 0.7%; viability at 1 µM [24]: 90%; Activity [25]: 4.1%; Activity [26]: 3.2%; viability at 1 µM [27]: 85.1%; viability at 0.3 µM [28]: 98.2%; Activity [29]: 0.5% |
